Measurements published in patent US7060714B2, “Fungal strain acremonium sp.MT70646(KCTC 0916BP), novel compounds produced by this strain and their use” (Korea Research Institute of Bioscience and Biotechnology, priority 1999, dated 2006).
pIC50: −log10 of the molar value. In brackets after ≈: the same amount, converted by molar mass.

What was measured:
Solubility in solvents = assay type: physicochemical
Description: The results of infrared (IR) absorption spectrum; ^1H-NMR and ^13C-NMR spectrum; and HMBC NMR spectrum analyses are shown in the Tables 2 & 3 and FIGS. 1–3.

B16 melanoma cells = assay: Invasion of B16 melanoma cells (Matrigel invasion); assay type: cell-based; conditions: for Relative Rate of Invasion (%): control 100; for No. of Cells Invaded: control 420.7 ± 15.6
Protocol: MT70646 (KCTC 0916BP) against the invasion of B16 melanoma cells through the synthetic basal membranes. […]
BioCoat invasion chamber (precoated Matrigel) was swelled for 30 min by serum-free DMEM and the chamber was placed into the well of 24 well plate which contains 600 μL of HT 1080 conditioned medium. And then 450 μL of melanoma cell suspension (4.5×10^3 cells) in DMEM medium containing 0.5% albumin was added into the chamber. After adding 50 μL of test sample, the chamber was incubated for 22–24 hr at 37° C. in a 5% CO2 atmosphere. And the filter of chamber was detached and fixed with methanol. After staining the filter with 5% crystal violet and the cells on the upper surface of the filters were removed by wiping them with a cotton swab. The cells invaded through the Matrigel and filter to the lower surface were counted under a microscope.

[1] = target: T1, heparanase derived from human platelets (Homo sapiens, UniProt Q9Y251); assay: Inhibition of heparanase (3H-heparan sulfate degradation); assay type: biochemical; conditions: 10 ng heparanase, 30 min at 37° C., pH 5.1; read-out: IC50 against heparanase
T1 construct: 10 ng of heparanase derived from human platelets; from tissue; host or cells: human platelets
T1 sequence (Q9Y251 158-543 limits assumed): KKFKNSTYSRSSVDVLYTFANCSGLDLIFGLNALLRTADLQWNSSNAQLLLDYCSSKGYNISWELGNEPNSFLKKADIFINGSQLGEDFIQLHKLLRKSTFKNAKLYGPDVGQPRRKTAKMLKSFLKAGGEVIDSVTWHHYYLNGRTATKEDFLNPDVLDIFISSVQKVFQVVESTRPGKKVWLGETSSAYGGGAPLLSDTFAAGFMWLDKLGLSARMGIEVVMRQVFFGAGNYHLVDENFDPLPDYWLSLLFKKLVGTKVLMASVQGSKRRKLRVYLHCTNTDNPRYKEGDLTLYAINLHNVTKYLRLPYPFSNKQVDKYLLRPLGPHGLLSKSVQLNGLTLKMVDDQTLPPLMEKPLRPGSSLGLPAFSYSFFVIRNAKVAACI
T1 sequence (Q9Y251 36-109 limits assumed): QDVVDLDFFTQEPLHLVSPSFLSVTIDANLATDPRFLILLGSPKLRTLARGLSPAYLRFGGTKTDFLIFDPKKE
Description: After the reaction, the reaction mixture was passed through a column filled with HRG-Sepharose beads and eluted out the degraded heparan sulfate by heparanase to measure the radioactivity.

[2] = test system: human umbilical vein enothelial cell (HUVEC); assay: Angiogenesis: HUVEC tube formation on Matrigel; assay type: cell-based; conditions: 18 hr, read-out: Inhibitory activity against the angiogenesis (tube formation); for inhibition at 1 µg/mL: 1 μg/mL; for inhibition at 3 µg/mL: 3 μg/mL; for inhibition at 10 µg/mL: 10 μg/mL
Protocol: After thawing Matrigel on ice, 40 μL of the Matrigel was added into each wells of a 96 well plate and placed for 30 min at 37° C. to solidify the Matrigel. Then, 180 μL of human umbilical vein enothelial cell (HUVEC) suspension (2×10^4 cells) was added made into each well of the solidified Matrigel and incubated for 18 hr in a 5% CO2 atmosphere at 37° C. The degree of tube formation was observed by microscope.

heparinase = target: T2, heparinase (Pedobacter heparinus, UniProt Q05819); assay: Inhibition of heparinase (heparin / antithrombin III / factor Xa chromogenic assay); assay type: biochemical, Flavobacterium heparinum
T2 construct: the heparinase was isolated from Flavobacterium heparinum; purchased Sigma Co. Ltd. (U.S.A.); host or cells: isolated from Flavobacterium heparinum
Protocol: To 17 μL of reaction buffer (14 mM sodium acetate and 1.4 mM CaCl2, pH 7.0) containing 10 ng of heparin were added 3 μL of test sample along with 0.2 unit of heparinase and placed at room temperature for 15 min. Then, 25 μL of antithrombin III solution was added and allowed to react for 2 min at room temperature and added with 25 μL of factor Xa solution. In one minute, 25 μL of factor Xa substrate was added to react for 5–10 min and then terminated the reaction by adding 25 μL of glacial acetic acid. The light absorbency was measured at 410 nm. The rate of enzyme inhibition was calculated as in the following equation 1, wherein IC50 was the concentration of the inhibitor when the rate of enzyme inhibition reached 50%. Inhibition (%)=(A−C)/(A−B)×100 [Equation 1]
In the above equation 1, A represents the light absorbance of the reagent after reaction when the inhibitor was not added, B represents the light absorbance of the reagent after reaction when enzyme solution was not added, and C represents the light absorbance of the reagent after reaction when the inhibitor was added.
The heparinase used in this experiment was purchased from Sigma Co. Ltd. (U.S.A.), wherein the heparinase was isolated from Flavobacterium heparinum.

T2 sequence (Q05819 22-384): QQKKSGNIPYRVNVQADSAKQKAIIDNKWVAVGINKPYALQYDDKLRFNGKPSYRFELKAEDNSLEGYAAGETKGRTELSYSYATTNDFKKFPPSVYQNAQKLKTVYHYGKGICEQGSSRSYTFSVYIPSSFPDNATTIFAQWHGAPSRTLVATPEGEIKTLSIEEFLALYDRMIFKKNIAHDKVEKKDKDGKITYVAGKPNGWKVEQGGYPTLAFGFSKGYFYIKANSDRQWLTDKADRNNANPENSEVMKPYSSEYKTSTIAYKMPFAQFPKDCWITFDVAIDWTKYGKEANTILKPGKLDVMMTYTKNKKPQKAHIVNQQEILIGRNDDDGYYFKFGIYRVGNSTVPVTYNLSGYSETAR

SMILES	Solubility in ethanol, butanol, dimethyl sulfoxide (DMSO) (Solubility in solvents)	Solubility in water, hexane and chloroform (Solubility in solvents)	Relative Rate of Invasion (%) (B16 melanoma cells; 1 μg/mL)	No. of Cells Invaded (B16 melanoma cells; 1 μg/mL)	Relative Rate of Invasion (%) (B16 melanoma cells; 3 μg/mL)	No. of Cells Invaded (B16 melanoma cells; 3 μg/mL)	Relative Rate of Invasion (%) (B16 melanoma cells; 10 μg/mL)	No. of Cells Invaded (B16 melanoma cells; 10 μg/mL)	pIC50 [1]	inhibition at 1 µg/mL [2] [%]	inhibition at 3 µg/mL [2] [%]	inhibition at 10 µg/mL [2] [%]	pIC50 (heparinase)	Physicochemical properties (comparison) (Solubility in solvents)	inhibition at 10 µg/mL (B16 melanoma cells; Mus musculus, B16, 10 μg/mL, read-out: Inhibitory activity against invasion) [%]	IC50 (B16 melanoma cells; Mus musculus, B16, estimated from Table 4, read-out: IC50 against invasion of B16 melanoma cells) [µg/mL]
CCCCCCCCCCCCCCCc1cc(OC2OC(C(=O)O)C(O)C(O)C2O)cc(O)c1C(=O)Oc1cc(C)c(C(=O)O)c(O)c1 (centres unmarked) [CRM646-A]	well dissolved	not dissolved easily	100.1	421.0 ± 15.6	91.4	384.4 ± 9.4	71.5	300.8 ± 10.2	5.00	< 30	< 30	30	5.52	–	–	–
CCCCCCCCCCCCCCCc1cc(OC2OC(C(=O)OC)C(O)C(O)C2O)cc(O)c1C(=O)Oc1cc(C)c(C(=O)O)c(O)c1 (single isomer, unassigned) [CRM646-B]	–	–	89.5	376.7 ± 19.7	36.9	155.3 ± 18.6	13.3	56.0 ± 8.9	–	< 30	30	60	4.60	almost same as in the compound CRM646-A	> 80	~2 (≈ 2.84 µM)
